Read-outs that look alike come from different tables or passages of the source.
What was measured:
[1] = Solubility of aclidinium bromide; assay type: physicochemical
Source text: Aclidinium bromide is a white powder with a molecular formula of C26H30NO4S2Br and a molecular mass of 564.56.

[2] = tested on: patients with moderate to severe COPD; experiment: Phase III randomized, double-blind, placebo controlled crossover trial; physical activity measured with multisensor armband; assay type: in vivo; conditions: week 3; for Δ Comparison versus placebo, change from baseline in daily active energy expenditure / Δ Comparison versus placebo, change from baseline in duration of at least moderate activity: 400 micrograms aclidinium bromide per inhalation twice-daily, p < 0.05
Source text: In a Phase III randomized, double-blind, placebo controlled, 2 period crossover trial, patients with moderate to severe COPD received a dose of aclidinium equivalent to a metered nominal dose of 400 micrograms of aclidinium bromide per inhalation twice-daily (in the morning, 9 am, and in the evening, […]) and placebo for two periods of 3 weeks, with a washout period of 2 weeks between treatment periods.
Patients were randomised to receive either a dose of aclidinium equivalent to a metered nominal dose of 400 micrograms of aclidinium bromide per inhalation twice-daily in the first period followed by placebo in the second period, or to receive placebo in the first period followed by aclidinium bromide 400 micrograms twice-daily in the second period. Both aclidinium bromide and placebo were administered with a Genuair® multidose dry powder inhaler.
Physical activity (as minutes of at least moderate activity per day and as average active energy expenditure expressed in Kcal) was measured in the last week of the treatment with aclidinium and placebo using a multisensor armband (SenseWear™ Pro Armband; BodyMedia, Pittsburgh, Pa., USA), was worn on the upper right over the triceps muscle, according to the method described in Watz B et al, Eur Respir J, 2009; 33: 262-272. The multisensory armband incorporates a biaxial accelerometer that records steps per day and physiological sensors of energy expenditure.
A valid period of measurement was defined as 5 days of measurement with the patients wearing the accelerometer at least 22 hours per day.
The Intention-to-Treat (ITT) population included 109 patients.

[3] = tested on: patients with COPD; conditions: previous trials, cited from earlier work
[4] = metered nominal dose 400 micrograms aclidinium bromide per inhalation twice-daily, adjusted mean, n = 85

Row | SMILES | Solubility in ethanol ([1]; ethanol) | Solubility in methanol ([1]; methanol) | Solubility in water ([1]; water) | Δ Comparison versus placebo, change from baseline in daily active energy expenditure [2] | Δ Comparison versus placebo, change from baseline in duration of at least moderate activity [2] | Δ Comparison versus placebo, change from baseline in daily active energy expenditure ([2]; listed as aclidinium bromide) [kcal] | Δ Comparison versus placebo, change from baseline in duration of at least moderate activity ([2]; listed as aclidinium bromide) [min] | Change from baseline in daily active energy expenditure [2, 4] [kcal] | Change from baseline in duration of at least moderate activity [2, 4] [min] | Improvement in physical activity versus placebo ([3]; listed as tiotroplum) | Improvement in physical activity versus placebo [3]
1 | O=C(O[C@H]1C[N+]2(CCCOc3ccccc3)CCC1CC2)C(O)(c1cccs1)c1cccs1 [Aclidinium, 3(R)-(2-hydroxy-2,2-dithien-2-ylacetoxy)-1-(3-phenoxypropyl)-1-azoniabicyclo[2.2.2] octane] | very slightly soluble | sparingly soluble | very slightly soluble | 55 (p < 0.05) Kcal | 10 (p < 0.05) minutes | 55 | 10 | 21.9 | 4.2 | – | –
2 | C[N+]1(C)[C@@H]2C[C@@H](OC(=O)C(O)(c3cccs3)c3cccs3)C[C@H]1[C@@H]1O[C@@H]12 [tiotropium] | – | – | – | – | – | – | – | – | – | not observed | not statistically demonstrated improvements in physical activity

From US20180000798A1, “USE OF ACLIDINIUM” (Almirall, S.A., priority 2012, published 2018)
